# From patent publication US5104859A, “Continuous administration of adenosine to reduce pulmonary vascular resistance” (priority 1990, dated 1992)
# “Also recorded” adds a separate entry of the source.
# Key:
# [1] = Clinical observations during and after cardiopulmonary bypass
# Procedure: (§1) During cardiopulmonary bypass (CPB), mean arterial blood pressure (MABP) above 70 mmHg was treated with the vasodilator sodium nitroprusside (SNP), except in the final phase or rewarming. CPB was performed with SARN roller pump and a Shiley oxygenator (100A) primed with 2000 ml crystalloid solution (75 mg heparin). The perfusion rate was kept at approximately […] body surface. Moderate hypothermia (25° C.) was induced. Cardioplegia was obtained with Ringer's solution (with added potassium up to 20 mM/1). Heparin (3 mg/kg) was administered as a bolus injection before cannulation. The heparin effect was controlled by measurements of activated clotting time. (Hemocron® Int. Technidyne Corp, USA). […] At the termination of CPB, the heparin effect was antagonized with protamine (c. 1.3 mg/mg heparin). ACT was checked 10-20 min after the protamine injection. ACT values 120 sec were considered satisfactory.
# (§2) Platelet count (Linson 431 A cell counter) and hematocrit were determined in arterial samples before anesthesia, after thoracotomy, during CPB at 10, 20, 40, 60, 80 and 100 min, 30 min after CPB and on the postoperative day. Platelet counts were expressed in percentage of preanesthesia levels and were corrected for hemodilution. MABP was monitored continuously via a catheter introduced in the radial artery. All patients received hypertonic mannitol (1-1.5 g/kg) during CPB and urine production was calculated as ml/.min of CPB (Table VI).
# Postoperative bleeding was measured as the blood loss from the tube drainage from the end of operation until the postoperative morning.
# In six cases the plasma adenosine levels were determined by high performance liquid chromatography (HPLC) (Fredholm and Sollevi, J. Physiol. (London), 313: 351-67 (1981) in arterial and in venous (venous lines to the oxygenator) blood. The adenosine metabolites inosine, hypoxanthine and uric acid were also determined by HPLC. The samples were collected as previously described (Sollevi, Acta. Physiol. Scand., 121: 165-72 (1984) at the intervals of 10, 20, 40 and 80 minutes during CPB and 20 minutes after CPB.
# (§3) Statistical significance (controls v. adenosine group) was determinted with Student's t-test for unpaired data. For significance within the groups the Wilcoxon Rank Sum test was used. p […] 0.05 was regarded as significant.
# [2] = system: atrio-ventricular (A-V) node; conditions: through blockage of the A-V node; cited from earlier work
# [3] = system: atrio-ventricular (A-V) node; test: Atrio-ventricular conductance / heart block; format: in vivo, human
# Text: In accordance with this invention, adenosine may be administered to human patients by continuous intravenous infusion to provide significant vasodilation and without significant heart blockage under two conditions. First, the heart blocking action of adenosine is not detected during anesthesia when the rate of administration is 0.35 milligrams of adenosine per kilogram of body weight per minute or less. Second, the heart blocking action of adenosine is not detected, even in conscious patients, at rates of administration of about 0.10 milligram of adenosine per kilogram of body weight per minute or less.
# blood pressure = test: Control of hypertensive crisis during surgery; format: in vivo, human; conditions: about 0.1 to about 0.2 mg/kg/min
# Procedure: Continuous infusion of adenosine can also be employed to control hypertensive crises occurring during surgery. Such crises can occur, for example, as a result of release of catecholamines during surgery on pheochromocytoma--a tumor characterized by the presence of catecholamine--which can cause pulmonary edema and death. At present, this situation is treated prophylactically by pre-administration of alpha- and beta-adrenoceptor blockers or vasodilators, but the effect is often insufficient. […] Amounts of adenosine which are effective in controlling such hypertensive crises will depend on the degree of hypertension. However, as a general rule they are about half of the amounts found useful for controlled hypotension, i.e., in the range of from about 0.1 to about 0.2 mg adenosine per kilogram of body weight per minute.
# [4] = Plasma half-life of adenosine; format: in vivo
# cardiac output = test: Cardiac output; format: in vivo, human; conditions: for cardiac output and heart work (words): intravenous infusion
# Text: This is in contrast to other vasodilators, such as sodium nitroprusside, which may reduce cardiac output, depending on the hemodynamic status of the patient. As a consequence, adenosine can be used to stimulate cardiac output in patients with low cardiac output states, due, for example, to heart surgery, infarct and the like.
# For this application, effective dosages are intermediate those used for increased graft flow and controlled hypotension. Typically the effective dose is of the order of 40-80 ug/kg/per minute. The duration of treatment can be as long as required to support the heart.
# [5] = system: pulmonary vascular resistance
# [6] = set-up: species or system human; conditions: in vivo
# Procedure: The mean hypotensive period was 32±8 min.
# platelets = test: Platelet protection during cardiopulmonary bypass; format: in vivo, human
# Procedure: Twenty-five patients scheduled for coronary artery bypass surgery were randomly assigned to two groups--one with adenosine infusion (n=13) and the other with placebo infusion (n=12).
# Intravenous anesthesia was used, either high-dose fentanyl (100-150 ug/kg) or balanced anesthesia (thiopental, fentanyl, diazepam and N2 O/O2.
# as §1
# as §2, with “VI). […]” for “VI).”
# as §3
# cardiovascular system = test: General activity profile of adenosine by continuous infusion; conditions: for tachyphylaxis / rebound hypertension (words): hypotension
# [7] = human, in vivo
compound,measurement,setting,value
Nc1ncnc2c1ncn2[C@@H]1O[C@H](CO)[C@@H](O)[C@H]1O [adenosine],systemic vasodilation at chosen infusion rate,"[1]; 100 ug/kg/min, highest such rate in pilot cases",did not induce systemic vasodilation
same,Preoperative urine production,"[1]; 0.1 mg per kg per min, with range in parentheses",4.1 (1.1-9.5) ml/min. CPB
same,urine production during CPB,"[1]; 500 ml/h in controls, p<0.01",250 mL/h
same,MABP during CPB vs placebo,"[1]; human, in vivo",did not differ significantly
same,postoperative blood loss vs control,"[1]; human, in vivo",did not differ
same,MABP after CPB,[1]; no intergroup difference at end of operation,slightly lower MABP
same,patients with transient creatinine elevation,[1]; one control patient,two
same,patients requiring vasodilator treatment,[1]; placebo: seven required nitroprusside,No patient
same,transient elevation of serum creatinine above normal range,[1]; two postoperative days,10-20%
same,heart block,[2],produce heart block
same,heart block in conscious patients,[3]; about 0.10 mg/kg/min or less,not detected
same,heart block / blockage of A-V conductance during anesthesia,"[3]; anesthesia, 0.35 mg/kg/min or less, 0.35 mg/kg",not detected; also recorded: does not occur; also recorded: no blockage of atrio-ventricular conductance is observed
same,A-V activity at vasodilating doses,[3]; continuous infusion,significant useful vasodilating action at dosages below those at which it has significant A-V activity
same,blood pressure in catecholamine-induced hypertensive crisis,blood pressure,rapidly restore blood pressure to normal
same,half-life,[4],< 10 s
same,cardiac output on termination of adenosine,cardiac output; 40-80 ug/kg/per minute,frequently remains above the cardiac output prior to treatment
same,cardiac output and heart work (words),cardiac output,increase cardiac output without increasing heart work
same,cardiac output and heart work (words),cardiac output; listed as Adenosine,significantly increasing cardiac output without significantly increasing cardiac work
same,pulmonary vascular resistance in induced pulmonary hypertension,"[5]; intravenous, hypoxic ventilation during anesthesia",marked reduction
same,"systemic vasodilator effects, cardiac output, arterial oxygen at doses lowering pulmonary resistance","[5]; pig, in vivo",commonly do not result in detectable vasodilator effects or effects on cardiac output or arterial oxygen function
same,ECG the day after the operation,[6],unchanged
same,intergroup difference in platelet counts,platelets; 60 min to end of CPB and 30 min after CPB,significant intergroup difference in platelet counts
same,infusion rate effective in protecting platelets,platelets; cardiopulmonary bypass,about 100 ug/kg/min
same,Platelet Count; % of Awake Count,"platelets; during CPB, 10 minutes",96 % of Awake Count
same,Platelet Count; % of Awake Count,"platelets; during CPB, 20 minutes",87 % of Awake Count
same,Platelet Count; % of Awake Count,"platelets; during CPB, 40 minutes",85 % of Awake Count
same,Platelet Count; % of Awake Count,"platelets; during CPB, 60 minutes",91 % of Awake Count
same,Platelet Count; % of Awake Count,"platelets; during CPB, 80 minutes",100 % of Awake Count
same,Platelet Count; % of Awake Count,"platelets; during CPB, 100 minutes",97 % of Awake Count
same,initial platelet reduction,platelets; during adenosine infusion,"small, and was significant only at 20 and 40 minutes on CPB"
same,Platelet Count; % of Awake Count,"platelets; post CPB, 30 minutes",88 % of Awake Count
same,Platelet Count; % of Awake Count,"platelets; post CPB, 24 hours",60 % of Awake Count
same,toxicity,cardiovascular system; amounts used in accordance with the invention,essentially non-toxic
same,after-load and pre-load,cardiovascular system; continuous infusion,"little or no effect on cardiac pre-load; also recorded: reduce after-load, without having significant effect on pre-load"
same,tachyphylaxis / rebound hypertension (words),cardiovascular system,does not cause tachyphylaxis; also recorded: rebound hypertension is avoided
same,tachyphylaxis / rebound hypertension (words),cardiovascular system; listed as Adenosine,without the occurrence of significant tachyphylaxis
same,heart rate on after-load reduction,cardiovascular system; in vivo,without significantly increasing heart rate
same,symptoms in awake patient at higher doses,[7],"facial flushing, neck and chest oppression, palpitation and increased rate of respiration"
